# Data taken from patent publication US12344584B2, “KCNQ potentiators” (Eli Lilly and Company, priority 2019, dated 2025).
# Like-named read-outs stand apart in the source and are kept apart here.
# Legend:
# [1] = system: peripheral axons; test: Threshold tracking of peripheral nerve excitability in anesthetized rats; format: in vivo; details: rat
# Procedure: Threshold Tracking to Measure the Effects of Example 1 at 3.10 and 30 mg/kg IP on Peripheral Nerve Excitability
# Threshold tracking is a non-invasive technique that allows measurement of the excitability properties of peripheral axons by providing information about their membrane potential and ion channel function.
# 16 male Wistar rats from Charles River, weighing between 307-446 g ware used. Animals are group housed with standard housing conditions (4 per cage, 07:00 h to 19:00 h light phase, constant temperature (21° C.) and humidity, and free access to food and water, as well as environmental enrichment).
# Rats are anesthetized with isoflurane (2-2.5%, O2 at 0.5 L/min) and then placed on their back on a heating pad to keep the tail temperature above 32° C. The placement of the ring electrodes are marked out and the marked sections of the tail are scraped with a blade to remove hair and the top layer of skin. The sites are cleaned with water and dried, allowing fora good conduction between the skin and the sticky electrodes.
# A sticky ring stimulating electrode (+ve anode) is wrapped around the foot. A second sticky ring stimulating electrode (−ve cathode) is wrapped 1.5 cm from the base of the tail. A needle recording electrode is placed just off center on the top of the tail, 6 cm distal to the stimulating cathode at the base of the tail. A needle reference electrode is placed just off center on the top of the tail, 2 cm distal to the recording electrode. A sticky ground electrode is wrapped around the tail 2 cm proximal from the recording electrode.
# • Start the Multitrack program (description below) and Spike. • Record 15 min of stable baseline • After the 15 min, dose with Example 1 or HEC • Take blood spot for PK at the following: • 10 min post dose • 20 min post dose • 30 min post dose • 40 min post dose • 45 min after IP (intraperitoneal) dosing with Example 1, dose XE-991 (XE-991 is a commercially available compound that blocks KCNQ potentiator effects in a formalin assay in vivo—see Y. Zheng, et al., “Activation of peripheral KCNQ channels relieves gout pain,” Pain, 156 (2015) 1025-1035; and R. Zaczek, et al., “Two New Potent Neurotransmitter Release Enhancers, 10,10-Bis(4-Pyridinylmethyl)-9(10H)-Anthracenone and 10,10-Bis(2-Fluoro-4-Pyridinylmethyl)-9(10H)-Anthracenone: Comparison to Linopirdine” The Journal of Pharmacology and Experimental Therapeutics, 285:724-730, 1998. • (XE-991 is only dosed after Example 1 at 30 mg/kg) • Take blood spot for PK at the following: • 10 min post dose (55 min post Example 1 administration) • 20 min post dose (65 min post Example 1 administration) • 30 min post dose (75 min post Example 1 administration) • 40 min post dose (85 min post Example 1 administration)
# In threshold tracking assay to measure the excitability properties of peripheral axons studies in rat, compound is administered by IP at 3, 10 or 30 mg/kg using 1% hydroxyethylcellulose: 0.25% polysorbate 80:0.05% antifoam:purified water (HEC) formulation. Dry blood spots (DBS) are collected around 10, 20, 30 and terminal 40 min post-dose. DBS samples are dried at RT for around 2 h. Brain samples are obtained at terminal time point and frozen until analysis. DBS samples are shipped and stored at RT.
# [2] = system: motor neurons derived from ALS patient iPSC line with pathogenic repeat expansion mutation in C9orf72; test: Optopatch excitability assay in motor neurons derived from ALS patient iPSC line (C9orf72 repeat expansion); format: cell-based; details: Homo sapiens, read-out: EC50, inhibition of excitability (action potential frequency)
# Text: Optopatch Excitability Assay for Example 1 in Motor Neurons Derived From ALS Patient iPSC Lines
# Altered excitability of cortical neurons and lower motor neuron is an important factor in the pathophysiology of ALS (See, for example, K. Kanai, et. al., J Neurol Neurosurg Psychiatry, 83, 734-738 (2012); P. Menon, et. al., Eur Neurol., 24, 816-824 (2017)). All-optical electrophysiology (“Optopatch”) was used to evaluate excitability in cultured motor neurons derived from iPSC lines from two ALS patients with different pathogenic mutations.
# Cell Culture: The two iPSC lines are derived from one patient with a pathogenic mutation in TARDBP and one patient with a pathogenic repeat expansion mutation in C9orf72, respectively. Motor neurons are generated from these lines by a 2D differentiation method adapted from the dual SMAD inhibition neuronal patterning protocol (See S. M. Chambers, et. al., Nat Biotechnol., 27, 275-280 (2009)) by inclusion of motor neuron morphogens. Differentiation is verified by visual inspection, karyotyping and staining for beta-III-tubulin and the nuclear motor neuron marker ISL1. Neurons are cultured on a monolayer of mouse glia in mTeSR (Stem Cell Technologies), supplemented with 10 ng/mL BDNF. Forty-eight hours prior to imaging, 100 nM trans-retinal was added to the medium.
# Transduction with Optopatch vectors: At 15 days in vitro, cultured motor neurons are transduced with a lentiviral vector to drive the co-expression of the actuator CheRiff-mOrange2 and the voltage indicator QuasAr3-Citrine (for details see D. R. Hochbaum, et. al., Nat. Methods, 11, 825-833 (2014)). Forty-eight hours prior to imaging, 100 nM trans-retinal was added to the medium.
# Solutions: Recordings are performed in Brainphys™ imaging buffer with 3 mM potassium. […]
# Optopatch Recordings: Five days after transduction, Optopatch imaging is performed on a custom, ultra-widefield fluorescence microscope at RT. Motor neurons are illuminated with red laser excitation (200 W/cm^2; 635 nm) to monitor changes in QuasAr fluorescence and blue LED excitation (0-127 mW/cm^2, 470 nm) to depolarize the cell membrane with CheRiff. […] Optopatch data are recorded using a Hamamatsu ORCA-Flash 4.0 sCMOS camera with a 1 kHz frame rate. […]
# Data Analysis: Image segmentation analysis is performed using temporal Principle Component Analysis and spatial-temporal Independent Component Analysis to isolate individual neurons. A spike-finding algorithm is used to find action potentials, and data are analyzed for compound effects on mean firing rate, adaptation, rheobase and action potential waveform shape by comparing to vehicle controls (for detail, see C. A. Werley, et. al., Curr. Protoc. Pharmacol., 78, 11.20.1-11.20.24. (2017)). […]
compound,measurement,setting,value
"CC(C)(C)[C@H](O)CNC(=O)NCc1ccnc(OCC(F)(F)F)c1 [Example 1, 1-[(2S)-2-hydroxy-3,3-dimethyl-butyl]-3-[[2-(2,2,2-trifluoroethoxy)-4-pyridyl]methyl]urea]",Threshold Tracking absolute threshold for 40% CMAP (±SEM),[1]; 3 mg/kg (IP),121 (±10) % baseline
same,Threshold Tracking absolute threshold for 40% CMAP (±SEM),[1]; 10 mg/kg (IP),140 (±8) % baseline
same,Threshold Tracking absolute threshold for 40% CMAP (±SEM),[1]; 30 mg/kg (IP),160 (±18) % baseline
same,absolute threshold compared with vehicle,"[1]; 30 mg/kg IP, Bonferroni multiple comparisons test",significantly increased absolute threshold
same,EC50,"[2]; Diff 1, blue LED 5.1 mW/cm^2, mean",170 nM
same,EC50,"[2]; Diff 2, blue LED 5.1 mW/cm^2, mean",200 nM
